In ChEMBL document CHEMBL1158222, “Antiinflammatory C-glucosyl chromone from Aloe barbadensis” (1996):
Calls of active or inactive are those of the source. The calls are words filed in the database; no cut-off is given here.

Assays:
Mus musculus [1] = species on record: Mus musculus; assay: Reduction in thymus weight in BALB/c mouse at 400 ug/ear; format: functional, organism-based
Mus musculus [2] = species on record: Mus musculus; assay: Antiinflammatory activity against croton oil-induced ear inflammation in BALB/c mouse at 200 ug/ear after 6 to 24 hrs; format: functional, organism-based
Mus musculus [3] = species on record: Mus musculus; assay: Reduction in thymus weight in BALB/c mouse at 200 ug/ear; format: functional; set-up: scale not given: the % may be the effect or the level left

SMILES | Activity (Mus musculus [1]) | Activity (Mus musculus [2]) | Activity (Mus musculus [3]) [%]
COc1cc(C)c2c(=O)cc(C[C@@H](C)O)oc2c1[C@@H]1O[C@H](CO)[C@@H](O)[C@H](O)[C@H]1OC(=O)/C=C/c1ccccc1 | inactive | Active | –
C[C@]12CCC(=O)C=C1CC[C@@H]1[C@@H]2[C@@H](O)C[C@@]2(C)[C@H]1CC[C@]2(O)C(=O)CO [HYDROCORTISONE] | – | Active | 50
